Read-outs that look alike come from different tables or passages of the source. Square brackets hold non-standard residues; d marks the D form. Side chains are listed from the residue outwards. Peptide text beside a SMILES is read from it. * marks the point of attachment. X12 = CCOc1ccc(C[C@@H](NC(=O)[C@H](N)Cc2ccccc2)C(=O)*)cc1; X5 = NCCCC[C@@H](NC(=O)CNC(=O)C1(N)CCN(*)CC1)C(N)=O; Piperidin1yl(4-NH2,4-COOH) = NC1(C(=O)O)CCN(*)CC1; X1 = NCCCC[C@@H](NC(=O)C1(N)CCN(*)CC1)C(N)=O; X4 = NCCCC[C@H](NC(=O)C1(N)CCN(*)CC1)C(=O)O; dAla(cPr) = N[C@H](CC1CC1)C(=O)O; Trifluoroethyl = FC(F)(F)C*; Api = NC1(C(=O)O)CCNCC1
Target: T1, human κ opioid receptor (OPRK1) (Homo sapiens, UniProt P41145)
T1 construct: expressed in transfected cells; host or cells: CHO-K1
T1 sequence (P41145 whole entry): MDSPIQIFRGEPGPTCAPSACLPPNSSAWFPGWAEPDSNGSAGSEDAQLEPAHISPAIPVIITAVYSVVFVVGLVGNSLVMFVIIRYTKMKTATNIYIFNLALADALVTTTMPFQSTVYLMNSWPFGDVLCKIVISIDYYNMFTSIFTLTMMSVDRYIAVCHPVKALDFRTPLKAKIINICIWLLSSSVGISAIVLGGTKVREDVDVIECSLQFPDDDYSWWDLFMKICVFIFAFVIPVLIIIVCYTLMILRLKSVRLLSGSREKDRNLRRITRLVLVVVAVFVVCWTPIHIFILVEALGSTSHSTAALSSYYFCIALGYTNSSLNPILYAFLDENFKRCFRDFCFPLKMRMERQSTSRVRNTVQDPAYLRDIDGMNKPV
Experiment: Determination of activities of κ receptor agonists: inhibition of forskolin-stimulated cAMP release (HTRF) in stably transfected CHO-K1 cells
Assay type: cell-based
Settings: for Relative Activity %: relative to Difelikefalin = 100.0
Source text: Gi-coupled human κ opioid receptor (OPRK1), upon stimulation with its specific opioid receptor agonists, can inhibit the intracellular adenylate cyclase pathway, and decrease cAMP levels. Forskolin can stimulate cAMP release in cell lines highly expressing opioid receptors. By stimulating cell lines stably transfected with opioid receptors, the inhibitory effect of a test compound on forskolin-stimulated cAMP release can be measured to determine the activity of the compound. The relative light units (RLU) from the cells after stimulation with different doses were measured via the homogeneous time-resolved fluorescence technique (HTRF), and the EC50 value of the agonist was subsequently calculated. This activity determination method is a currently commonly used method for determining the activities of opioid receptor agonists at home and abroad.
A CHO-K1 cell line stably expressing opioid receptors was used. Stably transfected cells were stimulated with various concentrations of agonists (under the stimulation of a certain concentration of forskolin). The relative light units from the cells after stimulation with different doses were measured, from which the EC50 value of the agonist was subsequently obtained by calculation.

Row | Compound | EC50 [pM] | Relative Activity % [%] | EC50 (CHO-K1 cell line stably expressing opioid receptors, forskolin-stimulated cAMP, HTRF, read-out: EC50) [pM]
1 | CC(C)C[C@@H](NC(=O)[C@@H](Cc1ccc(F)cc1)NC(=O)[C@H](N)Cc1ccccc1)C(=O)N[C@H](CCCCN)C(=O)N1CCC(N)(C(=O)N[C@@H](CCCCN)C(N)=O)CC1 [Compound 105, D-Phe-D-Phe(4-F)-D-Leu-D-Lys-4-aminopiperidine-4-carboxamide-Lys-NH2] | 79.6 | 762.8 | 
2 | CC(C)C[C@@H](NC(=O)[C@@H](Cc1ccc(I)cc1)NC(=O)[C@H](N)Cc1ccccc1)C(=O)N[C@H](CCCCN)C(=O)N1CCC(N)(C(=O)N[C@@H](CCCCN)C(N)=O)CC1 [Compound 123, D-Phe-D-Phe(4-I)-D-Leu-D-Lys-4-aminopiperidine-4-carboxamide-Lys-NH2] | 53.5 | 1135.0 | 
3 | CC(C)C[C@@H](NC(=O)[C@@H](Cc1ccc(I)cc1)NC(=O)[C@H](N)Cc1ccccc1)C(=O)N[C@H](CCCCN)C(=O)N1CCC(N)(C(=O)O)CC1 [Compound 122, D-Phe-D-Phe(4-I)-D-Leu-D-Lys-4-aminopiperidine-4-carboxamide-OH] | 120 | 505.6 | 
4 | Cc1ccc(C[C@@H](NC(=O)[C@H](N)Cc2ccccc2)C(=O)N[C@H](CC(C)C)C(=O)N[C@H](CCCCN)C(=O)N2CCC(N)(C(=O)N[C@@H](CCCCN)C(N)=O)CC2)cc1 [Compound 127, D-Phe-D-Phe(4-Me)-D-Leu-D-Lys-4-aminopiperidine-4-carboxamide-Lys-NH2] | 157 | 385.8 | 
5 | CCOc1ccc(C[C@@H](NC(=O)[C@H](N)Cc2ccccc2)C(=O)N[C@H](CC(C)C)C(=O)N[C@H](CCCCN)C(=O)N2CCC(N)(C(=O)N[C@@H](CCCCN)C(=O)N[C@@H](CCCCN)C(=O)N[C@@H](CCCCN)C(=O)N[C@@H](CCCCN)C(=O)N[C@@H](CCCCN)C(N)=O)CC2)cc1 [Compound 11, D-Phe-D-Tyr(Et)-D-Leu-D-Lys-4-aminopiperidine-4-carboxamide-Lys-Lys-Lys-Lys-Lys-NH2] (H-[Api]([dK-dL-X12])KKKKK-NH2; N-terminus assumed) | 53.4 | 1137.1 | 
6 | CC(C)C[C@@H](NC(=O)[C@@H](Cc1ccc(C(C)C)cc1)NC(=O)[C@H](N)Cc1ccccc1)C(=O)N[C@H](CCCCN)C(=O)N1CCC(N)(C(=O)N[C@H](CCCCN)C(N)=O)CC1 [Compound 137, D-Phe-D-Phe(4-Ipr)-D-Leu-D-Lys-4-aminopiperidine-4-carboxamide-D-Lys-NH2] | 144 | 423.1 | 
7 | CC(C)C[C@@H](NC(=O)[C@@H](Cc1ccc(F)cc1)NC(=O)[C@H](N)Cc1ccccc1)C(=O)N[C@H](CCCCN)C(=O)N1CCC(N)(C(=O)O)CC1 [Compound 104, D-Phe-D-Phe(4-F)-D-Leu-D-Lys-4-aminopiperidine-4-carboxamide-OH] | 215 | 281.9 | 
8 | CC(C)C[C@@H](NC(=O)[C@@H](Cc1ccc(OCC(F)(F)F)cc1)NC(=O)[C@H](N)Cc1ccccc1)C(=O)N[C@H](CCCCN)C(=O)N1CCC(N)(C(=O)N[C@H](CCCCN)C(N)=O)CC1 [Compound 95, D-Phe-D-Tyr(CH2CF3)-D-Leu-D-Lys-4-aminopiperidine-4-carboxamide-D-Lys-NH2] (H-[dF][dY](Trifluoroethyl)[dL][dK]-X1; N-terminus assumed) | 50.5 | 1202.4 | 
9 | CCc1ccc(C[C@@H](NC(=O)[C@H](N)Cc2ccccc2)C(=O)N[C@H](CC(C)C)C(=O)N[C@H](CCCCN)C(=O)N2CCC(N)(C(=O)N[C@@H](CCCCN)C(=O)O)CC2)cc1 [Compound 132, D-Phe-D-Phe(4-Et)-D-Leu-D-Lys-4-aminopiperidine-4-carboxamide-Lys-OH] | 130 | 465.6 | 
10 | COc1ccc(C[C@@H](NC(=O)[C@H](N)Cc2ccccc2)C(=O)N[C@H](CC(C)C)C(=O)N[C@H](CCCCN)C(=O)N2CCC(N)(C(=O)O)CC2)cc1 [Compound 86, D-Phe-D-Tyr(Me)-D-Leu-D-Lys-4-aminopiperidine-4-carboxamide-OH] (H-[dF][dY](Me)[dL][dK]-{Piperidin1yl(4-NH2,4-COOH)}; N-terminus assumed) | 121 | 501.0 | 
11 | CC(C)C[C@@H](NC(=O)[C@@H](Cc1ccc(Cl)cc1)NC(=O)[C@H](N)Cc1ccccc1)C(=O)N[C@H](CCCCN)C(=O)N1CCC(N)(C(=O)O)CC1 [Compound 110, D-Phe-D-Phe(4-C1)-D-Leu-D-Lys-4-aminopiperidine-4-carboxamide-OH] | 149 | 408.6 | 
12 | CC(C)C[C@@H](NC(=O)[C@@H](Cc1ccc(N)cc1)NC(=O)[C@H](N)Cc1ccccc1)C(=O)N[C@H](CCCCN)C(=O)N1CCC(N)(C(=O)N[C@H](CCCCN)C(N)=O)CC1 [Compound 141, D-Phe-D-Phe(4-NH2)-D-Leu-D-Lys-4-aminopiperidine-4-carboxamide-D-Lys-NH2] | 112 | 543.1 | 
13 | CCc1ccc(C[C@@H](NC(=O)[C@H](N)Cc2ccccc2)C(=O)N[C@H](CC(C)C)C(=O)N[C@H](CCCCN)C(=O)N2CCC(N)(C(=O)N[C@H](CCCCN)C(N)=O)CC2)cc1 [Compound 133, D-Phe-D-Phe(4-Et)-D-Leu-D-Lys-4-aminopiperidine-4-carboxamide-D-Lys-NH2] | 132 | 461.7 | 
14 | CCOc1ccc(C[C@@H](NC(=O)[C@H](N)Cc2ccccc2)C(=O)N[C@H](CC2CC2)C(=O)N[C@H](CCCCN)C(=O)N2CCC(N)(C(=O)O)CC2)cc1 [Compound 68, D-Phe-D-Tyr(Et)-D-cyclopropylalanine-D-Lys-4-aminopiperidine-4-carboxamide-OH] (H-[dF][dY](Et)[dAla(cPr)][dK]-{Piperidin1yl(4-NH2,4-COOH)}; N-terminus assumed) |  | 483.4 | 126
15 | CCOc1ccc(C[C@@H](NC(=O)[C@H](N)Cc2ccccc2)C(=O)N[C@H](CC(C)C)C(=O)N[C@H](CCCCN)C(=O)N2CCC(N)(C(=O)NCC(=O)N[C@H](CCCCN)C(N)=O)CC2)cc1 [Compound 49, D-Phe-D-Tyr(Et)-D-Leu-D-Lys-4-aminopiperidine-4-carboxamide-Gly-D-Lys-NH2] (H-[dF][dY](Et)[dL][dK]-X5; N-terminus assumed) | 44.5 | 1364.5 | 
16 | CCOc1ccc(C[C@@H](NC(=O)[C@H](N)Cc2ccccc2)C(=O)N[C@H](CC(C)C)C(=O)N[C@H](CCCCN)C(=O)N2CCC(N)(C(=O)NCC(=O)NCC(=O)NCC(=O)N[C@@H](CCCCN)C(=O)O)CC2)cc1 [Compound 56, D-Phe-D-Tyr(Et)-D-Leu-D-Lys-4-aminopiperidine-4-carboxamide-Gly-Gly-Gly-Lys-OH] (H-[Api]([dK-dL-X12])GGGK-OH; N-terminus assumed) | 50.6 | 1200.0 | 
17 | CCOc1ccc(C[C@@H](NC(=O)[C@H](N)Cc2ccccc2)C(=O)N[C@H](CC(C)C)C(=O)N[C@H](CCCCN)C(=O)N2CCC(N)(C(=O)N[C@H](CCCCN)C(=O)N[C@H](CCCCN)C(=O)N[C@H](CCCCN)C(=O)N[C@H](CCCCN)C(=O)N[C@H](CCCCN)C(N)=O)CC2)cc1 [Compound 23, D-Phe-D-Tyr(Et)-D-Leu-D-Lys-4-aminopiperidine-4-carboxamide-D-Lys-D-Lys-D-Lys-D-Lys -D-Lys-NH2] (H-[Api]([dK-dL-X12])[dK][dK][dK][dK][dK]-NH2; N-terminus assumed) | 55.4 | 1096.0 | 
18 | CC(C)C[C@@H](NC(=O)[C@@H](Cc1ccc(Br)cc1)NC(=O)[C@H](N)Cc1ccccc1)C(=O)N[C@H](CCCCN)C(=O)N1CCC(N)(C(=O)N[C@H](CCCCN)C(N)=O)CC1 [Compound 119, D-Phe-D-Phe(4-Br)-D-Leu-D-Lys-4-aminopiperidine-4-carboxamide-D-Lys-NH2] | 61.5 | 987.3 | 
19 | CCOc1ccc(C[C@@H](NC(=O)[C@H](N)Cc2ccccc2)C(=O)N[C@H](CC(C)C)C(=O)N[C@H](CCCCN)C(=O)N2CCC(N)(C(=O)N[C@@H](CCCCN)C(=O)O)CC2)cc1 [Compound 4, D-Phe-D-Tyr(Et)-D-Leu-D-Lys-4-aminopiperidine-4-carboxamide-Lys-OH] (H-[dF][dY](Et)[dL][dK]-X4; N-terminus assumed) | 39.9 | 1521.8 | 
20 | CC(C)C[C@@H](NC(=O)[C@@H](Cc1ccc(I)cc1)NC(=O)[C@H](N)Cc1ccccc1)C(=O)N[C@H](CCCCN)C(=O)N1CCC(N)(C(N)=O)CC1 [Compound 121, D-Phe-D-Phe(4-I)-D-Leu-D-Lys-4-aminopiperidine-4-carboxamide-NH2] | 122 | 496.1 | 
21 | CC(C)C[C@@H](NC(=O)[C@@H](Cc1ccc(Cl)cc1)NC(=O)[C@H](N)Cc1ccccc1)C(=O)N[C@H](CCCCN)C(=O)N1CCC(N)(C(=O)N[C@H](CCCCN)C(=O)O)CC1 [Compound 114, D-Phe-D-Phe(4-C1)-D-Leu-D-Lys-4-aminopiperidine-4-carboxamide-D-Lys-OH] | 51.5 | 1179.0 | 

Reference: patent US20260274891A1, “¿ OPIOID RECEPTOR AGONIST AND USE THEREOF” (CHENGDU AODA BIOTECHNOLOGY CO., LTD., priority 2023, published 2026)
